Test results published in patent publication US8735360B2 (priority 2009, dated 2014).
Positions of bridges follow the written chain, without caps; N, C: chain ends. Residues, ends and D or L forms follow the SMILES beside them.

How the values were obtained:
[1] = test system: ligated duodenal loops in rats; type: in vivo, rat; settings: 2.5 μg of peptide per loop
GC-C [2] = target: T1, GC-C (Homo sapiens, UniProt P25092); type: cell-based; settings: for Ratio EC50 pH 8/EC50 pH 5: cGMP response in T84 cells; for pH sensitivity with regard to binding and/or activation of GC-C: pH 5 versus pH 8
GC-C [3] = target: T1, GC-C; type: binding
female CD-1 mice = type: in vivo; settings: oral gavage, % distance travelled by charcoal front in small intestine

T1 sequence (P25092 24-1073 limits assumed): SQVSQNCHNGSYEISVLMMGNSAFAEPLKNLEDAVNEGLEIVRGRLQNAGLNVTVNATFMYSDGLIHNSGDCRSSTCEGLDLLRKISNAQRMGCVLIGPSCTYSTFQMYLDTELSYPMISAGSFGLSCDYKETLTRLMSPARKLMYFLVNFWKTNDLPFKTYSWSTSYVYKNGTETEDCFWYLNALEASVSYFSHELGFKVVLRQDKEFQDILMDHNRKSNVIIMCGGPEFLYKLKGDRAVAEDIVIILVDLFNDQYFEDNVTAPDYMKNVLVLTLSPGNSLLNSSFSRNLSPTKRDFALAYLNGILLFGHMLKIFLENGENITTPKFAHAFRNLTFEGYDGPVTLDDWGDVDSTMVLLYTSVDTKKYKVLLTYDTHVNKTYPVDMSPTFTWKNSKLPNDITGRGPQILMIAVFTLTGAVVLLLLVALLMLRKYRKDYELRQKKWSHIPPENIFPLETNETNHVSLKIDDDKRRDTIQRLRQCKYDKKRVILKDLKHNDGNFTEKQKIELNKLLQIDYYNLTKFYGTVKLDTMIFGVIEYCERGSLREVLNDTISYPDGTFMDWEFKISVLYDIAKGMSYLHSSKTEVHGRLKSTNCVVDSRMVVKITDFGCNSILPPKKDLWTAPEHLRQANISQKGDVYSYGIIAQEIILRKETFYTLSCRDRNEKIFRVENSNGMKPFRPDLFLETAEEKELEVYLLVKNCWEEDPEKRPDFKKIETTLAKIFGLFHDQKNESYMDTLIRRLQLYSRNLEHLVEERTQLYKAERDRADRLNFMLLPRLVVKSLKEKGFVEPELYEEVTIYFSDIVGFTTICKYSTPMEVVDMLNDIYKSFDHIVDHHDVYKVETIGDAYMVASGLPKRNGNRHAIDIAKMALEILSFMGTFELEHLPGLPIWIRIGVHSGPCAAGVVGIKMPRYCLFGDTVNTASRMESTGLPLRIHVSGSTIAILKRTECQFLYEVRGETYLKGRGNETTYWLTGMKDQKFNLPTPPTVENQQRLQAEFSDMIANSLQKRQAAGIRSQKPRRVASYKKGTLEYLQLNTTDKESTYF

CC(C)C[C@@H]1NC(=O)[C@H](CCC(=O)O)NC(=O)[C@@H]2CSSC[C@@H]3NC(=O)[C@H](C)NC(=O)[C@@H]4CCCN4C(=O)[C@H](CC(N)=O)NC(=O)[C@H](CSSC[C@H](N)C(=O)N2)NC(=O)[C@H](CSSC[C@@H](C(=O)N[C@@H](Cc2ccc(O)cc2)C(=O)O)NC(=O)CNC(=O)[C@H]([C@@H](C)O)NC3=O)NC1=O [Peptide 1, CCELCCNPACTGCY] (H-CCELCCNPACTGCY-OH; disulfide 1-6, 2-10, 5-13 (inferred); N-terminus and C-terminus assumed)
Rate of HCO3- accumulation [1]: 80 neq/min/cm | Rate of fluid accumulation [1]: 2.0 µL/min/cm | Ratio EC50 pH 8/EC50 pH 5 (GC-C [2]): 8.5 | pH sensitivity with regard to binding and/or activation of GC-C (GC-C [2]): little or no pH sensitivity | Ratio Ki pH 8/Ki pH 5 (GC-C [3]): 0.69 | ED50 in the gastrointestinal transit assay (female CD-1 mice): 0.43 µg/kg

C[C@@H]1NC(=O)[C@@H]2CCCN2C(=O)[C@H](CC(N)=O)NC(=O)[C@@H]2CSSC[C@H](N)C(=O)N[C@H]3CSSC[C@H](NC1=O)C(=O)N[C@@H]([C@@H](C)O)C(=O)NCC(=O)N[C@H](C(=O)N[C@@H](Cc1ccc(O)cc1)C(=O)O)CSSC[C@H](NC(=O)[C@H](Cc1ccccc1)NC(=O)[C@H](CCC(=O)O)NC3=O)C(=O)N2 [Peptide 2, CCEFCCNPACTGCY] (H-CCEFCCNPACTGCY-OH; disulfide 1-6, 2-10, 5-13)
Rate of HCO3- accumulation [1]: 80 neq/min/cm | Rate of fluid accumulation [1]: 2.0 µL/min/cm | Ratio EC50 pH 8/EC50 pH 5 (GC-C [2]): 13.2 | pH sensitivity with regard to binding and/or activation of GC-C (GC-C [2]): little or no pH sensitivity | Ratio Ki pH 8/Ki pH 5 (GC-C [3]): 0.97 | ED50 in the gastrointestinal transit assay (female CD-1 mice): 2.06 µg/kg

C[C@@H]1NC(=O)[C@@H]2CCCN2C(=O)[C@H](CC(N)=O)NC(=O)[C@@H]2CSSC[C@H](NC(=O)[C@H](CC(=O)O)NC(=O)[C@H](CC(=O)O)NC(=O)[C@@H](N)CC(N)=O)C(=O)N[C@H]3CSSC[C@H](NC1=O)C(=O)N[C@@H]([C@@H](C)O)C(=O)NCC(=O)N[C@H](C(=O)N[C@@H](Cc1ccc(O)cc1)C(=O)O)CSSC[C@H](NC(=O)[C@H](Cc1ccc(O)cc1)NC(=O)[C@H](CCC(=O)O)NC3=O)C(=O)N2 [Peptide 3, NDDCCEYCCNPACTGCY] (H-NDDCCEYCCNPACTGCY-OH; disulfide 4-9, 5-13, 8-16 (inferred); N-terminus and C-terminus assumed)
Ratio EC50 pH 8/EC50 pH 5 (GC-C [2]): 25.3 | Ratio Ki pH 8/Ki pH 5 (GC-C [3]): 17.5

C[C@@H]1NC(=O)[C@@H]2CCCN2C(=O)[C@H](CC(N)=O)NC(=O)[C@@H]2CSSC[C@H](NC(=O)[C@H](CC(=O)O)NC(=O)[C@@H](N)CC(=O)O)C(=O)N[C@H]3CSSC[C@H](NC1=O)C(=O)N[C@@H]([C@@H](C)O)C(=O)NCC(=O)N[C@H](C(=O)N[C@@H](Cc1ccc(O)cc1)C(=O)O)CSSC[C@H](NC(=O)[C@H](Cc1ccc(O)cc1)NC(=O)[C@H](CCC(=O)O)NC3=O)C(=O)N2 [Peptide 4, DDCCEYCCNPACTGCY] (H-DDCCEYCCNPACTGCY-OH; disulfide 3-8, 4-12, 7-15 (inferred); N-terminus and C-terminus assumed)
Rate of HCO3- accumulation [1]: 80 neq/min/cm | Rate of fluid accumulation [1]: 2.0 µL/min/cm | Ratio EC50 pH 8/EC50 pH 5 (GC-C [2]): 48.0 | Ratio Ki pH 8/Ki pH 5 (GC-C [3]): 5.27 | ED50 in the gastrointestinal transit assay (female CD-1 mice): 6.3 µg/kg

C[C@@H]1NC(=O)[C@@H]2CCCN2C(=O)[C@H](CC(N)=O)NC(=O)[C@@H]2CSSC[C@H](NC(=O)[C@H](CC(=O)O)NC(=O)[C@H](CC(=O)O)NC(=O)[C@@H](N)CC(=O)O)C(=O)N[C@H]3CSSC[C@H](NC1=O)C(=O)N[C@@H]([C@@H](C)O)C(=O)NCC(=O)N[C@H](C(=O)N[C@@H](Cc1ccc(O)cc1)C(=O)O)CSSC[C@H](NC(=O)[C@H](Cc1ccc(O)cc1)NC(=O)[C@H](CCC(=O)O)NC3=O)C(=O)N2 [Peptide 5, DDDCCEYCCNPACTGCY]
Ratio EC50 pH 8/EC50 pH 5 (GC-C [2]): 256 | Ratio Ki pH 8/Ki pH 5 (GC-C [3]): 5.52 | ED50 in the gastrointestinal transit assay (female CD-1 mice): 7.54 µg/kg

C[C@@H]1NC(=O)[C@@H]2CCCN2C(=O)[C@H](CC(N)=O)NC(=O)[C@@H]2CSSC[C@H](NC(=O)[C@H](CC(=O)O)NC(=O)[C@H](CC(=O)O)NC(=O)CN)C(=O)N[C@H]3CSSC[C@H](NC1=O)C(=O)N[C@@H]([C@@H](C)O)C(=O)NCC(=O)N[C@H](C(=O)N[C@@H](Cc1ccc(O)cc1)C(=O)O)CSSC[C@H](NC(=O)[C@H](Cc1ccc(O)cc1)NC(=O)[C@H](CCC(=O)O)NC3=O)C(=O)N2 [Peptide 7, GDDCCEYCCNPACTGCY] (H-GDDCCEYCCNPACTGCY-OH; disulfide 4-9, 5-13, 8-16 (inferred); N-terminus and C-terminus assumed)
Ratio EC50 pH 8/EC50 pH 5 (GC-C [2]): 383

C[C@@H]1NC(=O)[C@@H]2CCCN2C(=O)[C@H](CC(N)=O)NC(=O)[C@@H]2CSSC[C@H](NC(=O)[C@H](CC(=O)O)NC(=O)[C@H](CC(=O)O)NC(=O)[C@@H]3CCCN3)C(=O)N[C@H]3CSSC[C@H](NC1=O)C(=O)N[C@@H]([C@@H](C)O)C(=O)NCC(=O)N[C@H](C(=O)N[C@@H](Cc1ccc(O)cc1)C(=O)O)CSSC[C@H](NC(=O)[C@H](Cc1ccc(O)cc1)NC(=O)[C@H](CCC(=O)O)NC3=O)C(=O)N2 [Peptide 8, PDDCCEYCCNPACTGCY] (H-PDDCCEYCCNPACTGCY-OH; disulfide 4-9, 5-13, 8-16)
Ratio EC50 pH 8/EC50 pH 5 (GC-C [2]): 58.2

C[C@H](N)C(=O)N[C@@H](CC(=O)O)C(=O)N[C@@H](CC(=O)O)C(=O)N[C@H]1CSSC[C@@H]2NC(=O)[C@@H]3CSSC[C@@H](C(=O)N[C@@H](Cc4ccc(O)cc4)C(=O)O)NC(=O)CNC(=O)[C@H]([C@@H](C)O)NC(=O)[C@H](CSSC[C@H](NC1=O)C(=O)N[C@@H](CCC(=O)O)C(=O)N[C@@H](Cc1ccc(O)cc1)C(=O)N3)NC(=O)[C@H](C)NC(=O)[C@@H]1CCCN1C(=O)[C@H](CC(N)=O)NC2=O [Peptide 9, ADDCCEYCCNPACTGCY]
Ratio EC50 pH 8/EC50 pH 5 (GC-C [2]): 79.8 | Ratio Ki pH 8/Ki pH 5 (GC-C [3]): 1.29

CC(C)C[C@@H]1NC(=O)[C@H](CCC(=O)O)NC(=O)[C@@H]2CSSC[C@@H]3NC(=O)[C@H](C)NC(=O)[C@@H]4CCCN4C(=O)[C@H](CC(N)=O)NC(=O)[C@H](CSSC[C@H](NC(=O)[C@H](CC(=O)O)NC(=O)[C@H](CC(=O)O)NC(=O)[C@@H](N)CC(N)=O)C(=O)N2)NC(=O)[C@H](CSSC[C@@H](C(=O)N[C@@H](Cc2ccc(O)cc2)C(=O)O)NC(=O)CNC(=O)[C@H]([C@@H](C)O)NC3=O)NC1=O [Peptide 11, NDDCCELCCNPACTGCY]
Ratio EC50 pH 8/EC50 pH 5 (GC-C [2]): 2.7 | Ratio Ki pH 8/Ki pH 5 (GC-C [3]): 6.43

CC(C)C[C@@H]1NC(=O)[C@H](CCC(=O)O)NC(=O)[C@@H]2CSSC[C@@H]3NC(=O)[C@H](C)NC(=O)[C@@H]4CCCN4C(=O)[C@H](CC(N)=O)NC(=O)[C@H](CSSC[C@H](NC(=O)[C@H](CC(=O)O)NC(=O)[C@H](CC(=O)O)NC(=O)[C@H](C)N)C(=O)N2)NC(=O)[C@H](CSSC[C@@H](C(=O)N[C@@H](Cc2ccc(O)cc2)C(=O)O)NC(=O)CNC(=O)[C@H]([C@@H](C)O)NC3=O)NC1=O [Peptide 13, ADDCCELCCNPACTGCY]
Ratio EC50 pH 8/EC50 pH 5 (GC-C [2]): 62.5

CC(C)C[C@@H]1NC(=O)[C@H](CCC(=O)O)NC(=O)[C@@H]2CSSC[C@@H]3NC(=O)[C@H](C)NC(=O)[C@@H]4CCCN4C(=O)[C@H](CC(N)=O)NC(=O)[C@H](CSSC[C@H](NC(=O)[C@H](CC(=O)O)NC(=O)[C@@H](N)CC(=O)O)C(=O)N2)NC(=O)[C@H](CSSC[C@@H](C(=O)N[C@@H](Cc2ccc(O)cc2)C(=O)O)NC(=O)CNC(=O)[C@H]([C@@H](C)O)NC3=O)NC1=O [Peptide 16, DDCCELCCNPACTGCY] (H-DDCCELCCNPACTGCY-OH; disulfide 3-8, 4-12, 7-15 (inferred); N-terminus and C-terminus assumed)
Ratio EC50 pH 8/EC50 pH 5 (GC-C [2]): 26.9

CC(C)C[C@@H]1NC(=O)[C@H](CCC(=O)O)NC(=O)[C@@H]2CSSC[C@@H]3NC(=O)[C@H](C)NC(=O)[C@@H]4CCCN4C(=O)[C@H](CC(N)=O)NC(=O)[C@H](CSSC[C@H](NC(=O)[C@H](CC(=O)O)NC(=O)[C@H](CC(=O)O)NC(=O)[C@@H](N)CC(=O)O)C(=O)N2)NC(=O)[C@H](CSSC[C@@H](C(=O)N[C@@H](Cc2ccc(O)cc2)C(=O)O)NC(=O)CNC(=O)[C@H]([C@@H](C)O)NC3=O)NC1=O [Peptide 17, DDDCCELCCNPACTGCY]
Rate of fluid accumulation [1]: 1.8 µL/min/cm | Ratio EC50 pH 8/EC50 pH 5 (GC-C [2]): 386.2 | Ratio Ki pH 8/Ki pH 5 (GC-C [3]): 6.35 | ED50 in the gastrointestinal transit assay (female CD-1 mice): 2.9 µg/kg

CC(C)C[C@@H]1NC(=O)[C@H](CCC(=O)O)NC(=O)[C@@H]2CSSC[C@@H]3NC(=O)[C@H](C)NC(=O)[C@@H]4CCCN4C(=O)[C@H](CC(N)=O)NC(=O)[C@H](CSSC[C@H](NC(=O)[C@H](CC(=O)O)NC(=O)[C@H](CC(=O)O)NC(=O)[C@@H]4CCCN4)C(=O)N2)NC(=O)[C@H](CSSC[C@@H](C(=O)N[C@@H](Cc2ccc(O)cc2)C(=O)O)NC(=O)CNC(=O)[C@H]([C@@H](C)O)NC3=O)NC1=O [Peptide 18, PDDCCELCCNPACTGCY] (H-PDDCCELCCNPACTGCY-OH; disulfide 4-9, 5-13, 8-16 (inferred); N-terminus and C-terminus assumed)
Ratio EC50 pH 8/EC50 pH 5 (GC-C [2]): 205.2

CC(C)C[C@@H]1NC(=O)[C@H](CCC(=O)O)NC(=O)[C@@H]2CSSC[C@@H]3NC(=O)[C@H](C)NC(=O)[C@@H]4CCCN4C(=O)[C@H](CC(N)=O)NC(=O)[C@H](CSSC[C@H](NC(=O)[C@H](CC(=O)O)NC(=O)[C@H](CC(=O)O)NC(=O)CN)C(=O)N2)NC(=O)[C@H](CSSC[C@@H](C(=O)N[C@@H](Cc2ccc(O)cc2)C(=O)O)NC(=O)CNC(=O)[C@H]([C@@H](C)O)NC3=O)NC1=O [Peptide 19, GDDCCELCCNPACTGCY] (H-GDDCCELCCNPACTGCY-OH; disulfide 4-9, 5-13, 8-16 (inferred); N-terminus and C-terminus assumed)
Ratio EC50 pH 8/EC50 pH 5 (GC-C [2]): 61.5

CC(C)C[C@@H]1NC(=O)[C@H](CCC(=O)O)NC(=O)[C@@H]2CSSC[C@@H]3NC(=O)[C@H](C)NC(=O)[C@@H]4CCCN4C(=O)[C@H](CC(N)=O)NC(=O)[C@H](CSSC[C@H](NC(=O)[C@H](CC(=O)O)NC(=O)[C@H](CC(=O)O)NC(=O)[C@@H](N)CC(=O)O)C(=O)N2)NC(=O)[C@H](CSSC[C@@H](C(=O)O)NC(=O)CNC(=O)[C@H]([C@@H](C)O)NC3=O)NC1=O [Peptide 20, DDDCCELCCNPACTGC] (H-DDDCCELCCNPACTGC-OH; disulfide 4-9, 5-13, 8-16 (inferred); N-terminus and C-terminus assumed)
Ratio EC50 pH 8/EC50 pH 5 (GC-C [2]): 90 | Ratio Ki pH 8/Ki pH 5 (GC-C [3]): 3.6
